Measurements published in BindingDB's records for doi:10.1016/j.bmcl.2016.04.030 (Galecto Biotech, 2016).

What was measured:
[1] = Antagonist activity at P2Y12 receptor in human platelets assessed as inhibition of ADP-induced platelet aggregation by turbidimetric method
[2] = Antagonist activity at P2Y12 receptor in human platelets assessed as inhibition of ADP-induced platelet aggregation by microplate reader analysis

For `CCCSc1nc(N)c2ncn([C@@H]3O[C@H](COP(=O)(O)OP(=O)(O)C(Cl)(Cl)P(=O)(O)O)[C@@H](O)[C@H]3O)c2n1`, which IC50 [1] is on record?
Its IC50 is 0.0025 µM.

For `CNc1cc2[nH]c(=O)n(-c3ccc(NC(=O)NS(=O)(=O)c4ccc(Cl)s4)cc3)c(=O)c2cc1F` [ELINOGREL], which IC50 [2] is on record?
Its IC50 is < 10 µM.

For `Nc1ncnc2c1ncn2[C@@H]1O[C@H](COP(=O)(O)OP(=O)(O)C(Cl)(Cl)P(=O)(O)O)[C@@H](O)[C@H]1O`, which IC50 [1] is on record?
Its IC50 is 316 µM.

For `Nc1ncnc2c1ncn2[C@@H]1O[C@H](CO[P@@](=O)(O)O[P@](=O)(O)OP(=O)(O)O)[C@@H](O)[C@H]1O` [ATP], which IC50 [1] is on record?
Its IC50 is 251 µM.

For `O=P(O)(OC[C@H]1O[C@@H](n2cnc3c(NCC(F)(F)F)nc(SCCC(F)(F)F)nc32)[C@H](O)[C@@H]1O)OP(=O)(O)C(Cl)(Cl)P(=O)(O)O`, which IC50 [1] is on record?
The IC50 was 0.000794 µM.
